Test results reported in patent US8916204B2, “SPARC and methods of use thereof” (Abraxis BioScience, LLC, priority 2004, dated 2014).

System: endothelial monolayers (gp60-mediated caveolar transcytosis)
Assay: inhibition of transport of paclitaxel from ABX across endothelial monolayers
Type: in vitro ADME, human
Description: Transport was dependent on albumin.

Compound	effect on transport of paclitaxel from ABX
[…]-methyl cyclodextrin [BMC]	inhibited
CCN1C(=O)C=CC1=O [NEM]	inhibited
